Data on six molecules can be found in BindingDB's records for doi:10.7270/Q2T72FVT (University of Pittsburgh, 2007).

Molecules are shown by their SMILES. A value given as a limit tells only on which side of the number the result lay.

For the experiment, the target named is Serine/threonine-protein kinase PLK1 (Homo sapiens, UniProt P53350). The experiment can be described thus: potency against Plk1 PBD phosphopeptide binding – biochemical, fluorescence polarization, dose response (AID 877).
Serine/threonine-protein kinase PLK1, sequence (P53350 whole entry): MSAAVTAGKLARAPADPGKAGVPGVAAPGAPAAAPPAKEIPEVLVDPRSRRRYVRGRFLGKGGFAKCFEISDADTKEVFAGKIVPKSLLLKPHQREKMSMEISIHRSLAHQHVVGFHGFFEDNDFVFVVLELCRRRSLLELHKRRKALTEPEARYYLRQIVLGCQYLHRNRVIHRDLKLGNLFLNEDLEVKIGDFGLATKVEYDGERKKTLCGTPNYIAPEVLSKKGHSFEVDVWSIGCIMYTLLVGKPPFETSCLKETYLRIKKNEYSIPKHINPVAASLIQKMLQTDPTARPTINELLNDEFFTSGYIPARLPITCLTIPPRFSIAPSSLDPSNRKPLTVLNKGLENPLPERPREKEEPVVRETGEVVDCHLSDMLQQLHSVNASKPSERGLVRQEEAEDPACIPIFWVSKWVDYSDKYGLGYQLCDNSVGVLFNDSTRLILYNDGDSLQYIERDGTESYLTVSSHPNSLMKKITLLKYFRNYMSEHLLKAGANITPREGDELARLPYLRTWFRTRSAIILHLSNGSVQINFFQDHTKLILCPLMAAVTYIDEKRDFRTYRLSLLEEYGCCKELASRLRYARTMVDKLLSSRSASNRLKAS
In general, IC50 refers to the midpoint of a concentration-inhibition curve. The molecule `CC(=O)N(N=C1Sc2ccccc2C1=O)c1cccc(C)c1` [N-(3-methylphenyl)-N-[(3-oxidanylidene-1-benzothiophen-2-ylidene)amino]ethanamide] showed an IC50 of 32.9 µM. This lies in the double-digit micromolar range. As for `CC(C)N(Cc1cc2ccccc2[nH]c1=O)C(=O)c1cccnc1` [N-[(2-oxo-1H-quinolin-3-yl)methyl]-N-propan-2-ylpyridine-3-carboxamide], the figure is more than 50 µM; as for `CC(=O)N(N=C1Sc2ccccc2C1=O)c1ccccc1` [N-[(Z)-(3-ketobenzothiophen-2-ylidene)amino]-N-phenyl-acetamide], more than 50 µM. Next, `Cc1cccc2[nH]c3c(N4CCN(C(=O)c5ccco5)CC4)ncnc3c12` [SMR000148910]: more than 50 µM; `NC(=O)C1CCN(C2=C(Cl)C(=O)c3ccccc3C2=O)CC1` [SMR000180199]: 33.3 µM. As for `COC(=O)c1ccccc1NC1=CC(=NS(=O)(=O)c2cccs2)c2ccccc2C1=O` [methyl 2-[[(4E)-1-oxidanylidene-4-thiophen-2-ylsulfonylimino-naphthalen-2-yl]amino]benzoate], the figure is more than 50 µM.
